Assay results from US10617735B2, “Methods and compositions for preserving retinal ganglion cells” (Massachusetts Eye and Ear Infirmary, priority 2010, dated 2020).
Where a SMILES comes first, the peptide text is derived from it. The star is where a group is joined. Cbz = O=C(OCc1ccccc1)*; CH2F = FC*

Tested on: retinal ganglion cells (RGCs)
Test: TUNEL staining after ON injury
Type: in vivo, mouse
From the text: Two mouse models of RGC death were utilized: optic nerve (ON) injury and N-methyl-D-aspartate (NMDA) retinal excitotoxicity. ON injury leads to RGC death as a result of primary damage to the axons, with its ensuing disruption of retrograde axonal transport (Libby et al., (2005) PLOS GENET 1:17-26) and is used as an RGC death model. In the ON injury model, mice were anesthetized and subjected to severe crush injury at 1-2 mm distance from the eyeball for 15 seconds using cross-action forceps taking special care not to interfere with the blood supply (Levkovitch-Verbin, (2004) EYE 18:1066-1074). […] Soon after injury, each group received an intravitreal injection (2 μl) with the respective compounds. In the NMDA retinal excitotoxicity model, NMDA (2 μl of a 0.1M stock; Sigma-Aldrich) was injected intravitreously in combination with ZVAD, Nec-1, or ZVAD plus Nec-1 and mice were separated into the aforementioned 4 groups. The dose of these compounds was selected based on previous studies (Karl et al., (2008) PROC NATL ACAD SCI USA 105:19508-19513; Knoferle et al., (2010) PROC NATL ACAD SCI USA 107:6064-6069; Nakazawa et al., (2006) J NEUROSCI 26:12633-12641; Rosenbaum et al., (2010) J NEUROSCI RES 88:1569-1576).
Intravitreal injections were performed as follows. Briefly, the tip of a 33 gauge needle (Hamilton, Reno, Nev.) was carefully inserted through the sclera into the intravitreal space to reduce intraocular pressure. Then, the needle was extracted, loaded with compounds and tangentially reinserted through the sclera into the intravitreal space, inducing a self-sealing wound tunnel. After injection, the absence of choroidal bleeding was confirmed. At specified times after injury, mice were sacrificed with an overdose of sodium pentobarbital, and eyes were enucleated.

COC(=O)CC(NC(=O)C(C)NC(=O)C(NC(=O)OCc1ccccc1)C(C)C)C(=O)CF (stereo not drawn) [Z-VAD, Benzyloxycarbonyl-Val-Ala-Asp(OMe)-fluoromethylketone] (Cbz-Val-Ala-Asp(OMe)-CH2F; configuration not given here)
TUNEL positive cells (RIP3−/− mice, one day after ON injury): marked decrease in TUNEL positive cells | TUNEL positive cells (apoptotic RGCs) (wild-type mice, day one after ON injury, intravitreal Z-VAD (300 uM) and/or Nec-1 (400 uM)): failed to rescue RGCs
